Experimental data from US11472766B2, “Lipid nanoparticle composition” (Suzhou Abogen Biosciences Co., Ltd., priority 2020, dated 2022).

Columns and labels:
[1] = Encapsulation efficiency of lipid nanoparticles (Quant-it Ribogreen RNA quantification assay); assay type: physicochemical; conditions: LNP encapsulating hEPO mRNA
Method in brief: (§1)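 Ribogreen fluorescence quantifies encapsulated mRNA and backscatter (173°) DLS sizes the particles. These are microfluidically mixed four-component LNPs in DPBS after dialysis.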

[2] = test system: human erythropoietin (hEPO) mRNA; assay: Animal study: hEPO expression after tail vein injection of LNPs encapsulating hEPO mRNA (serum ELISA); assay type: in vivo; conditions: hEPO level, female ICR mice, 0.5 mg/kg, 6 hours post administration; for Expression at 6 h (μg/ml): class symbols, Table 3; for Expression at 6 h: Table 2
Method in brief: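 Female ICR mice (6-8 weeks) received LNPs carrying hEPO mRNA by tail vein injection at 0.5 mg/kg, with MC3 LNPs dosed the same way as positive control. Blood was drawn at set times (e.g., 6 h) and serum separated. hEPO was quantified by ELISA and reported as μg/ml.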

[3] = Apparent pKa of LNP formulations (TNS fluorescence assay); conditions: LNP cationic lipid/DSPC/cholesterol/DMG-PEG 50/10/38.5/1.5 mol %
Experimental: The apparent pKa of each formulation was determined using an assay based on fluorescence of 2-(p-toluidino)-6-napthalene sulfonic acid (TNS). LNP formulations comprising of cationic lipid/DSPC/cholesterol/DMG-PEG (50/10/38.5/1.5 mol %) in PBS were prepared as described above. TNS was prepared as a 300 uM stock solution in distilled water. LNP formulations were diluted to 0.1 mg/ml total lipid in 3 mL of buffered solutions containing 50 mM sodium citrate, 50 mM sodium phosphate, 50 mM sodium borate, and 30 mM sodium chloride where the pH ranged from 3 to 9. An aliquot of the TNS solution was added to give a final concentration of 0.1 mg/ml and following vortex mixing fluorescence intensity was measured at room temperature in a Molecular Devices Spectramax iD3 spectrometer using excitation and mission wavelengths of 325 nm and 435 nm. A sigmoidal best fit analysis was applied to the fluorescence data and the pKa value was measured as the pH giving rise to half-maximal fluorescent intensity.

[4] = Lipid nanoparticle size by dynamic light scattering (Malvern Zetasizer Nano ZS); assay type: physicochemical; conditions: LNP: cationic lipid/DSPC/cholesterol/PEG-lipid 50:10:38.5:1.5, hEPO mRNA
Method in brief: as §1

| Compound | Encapsulation Efficiency ([1]; Table 3) | Expression at 6 h (μg/ml) [2] | Apparant Pka ([3]; Table 3) | polydispersity ([4]; Table 3) | size nm ([4]; Table 3) | Encapsulation Efficiency ([1]; Table 2) | Expression at 6 h [2] | Apparant Pka ([3]; Table 2) | polydispersity ([4]; Table 2) | size nm ([4]; Table 2) |
| --- | --- | --- | --- | --- | --- | --- | --- | --- | --- | --- |
| CCCCCCC(CCCCCC)CC(=O)NCCCCCN(CCCCCOC(=O)CC(CCCCCC)CCCCCC)CCN(CCO)C1CCCC1 [Compound 154] | 88.4% | A (≥2) | 6.836 | 0.068 | 104.8 nm |  |  |  |  |  |
| CCCCCCCCC(CCCCCC)C(CC)OC(=O)CCCCCN(CCCCCC(=O)OC(CC)C(CCCCCC)CCCCCCCC)CCN(CCO)C1CCC1 (stereo not drawn) [Compound 39] | 98.8% | C (≥0.1 and <1) | 6.061 | 0.043 | 64.4 nm |  |  |  |  |  |
| CCCCCCCCC(CCCCCCCC)COC(=O)CCCCCN(CCCCCC(=O)OCC(CCCCCCCC)CCCCCCCC)CCN(CCC)C1CCC(O)CC1 (stereo not drawn) [Compound 70] | 84.3% | A (≥2) | 6.381 | 0.034 | 77.54 nm |  |  |  |  |  |
| CCCCCCCCC(CCCCCC)CC(=O)NCCCCCN(CCCCCNC(=O)CC(CCCCCC)CCCCCCCC)CCN(CCO)C1CC1 (stereo not drawn) [Compound 113] | 91.2% | A (≥2) | 6.728 | 0.04 | 90 nm |  |  |  |  |  |
| CCCCCCCCC(CCCCCC)COC(=O)CCCCCN(CCCCCC(=O)OCC(CCCCCC)CCCCCCCC)CCN(CCO)C1CCCCCCC1 (stereo not drawn) [Compound 6] |  |  |  |  |  | 96.6% | 0.00 µg/mL | 5.88 | 0.109 | 60.5 nm |
| CCCCCCCCC(CCCCCC)COC(=O)CCCCCN(CCCCCC(=O)OCC(CCCCCC)CCCCCCCC)CCN(CCCO)C1CCCCC1 (stereo not drawn) [Compound 9] |  |  |  |  |  | 93.3% | 0.86 µg/mL | 6.01 | 0.106 | 77.6 nm |
| CCCCCCC(CCCCCC)COC(=O)CCCCCN(CCCCCC(=O)OCC(CCCCCC)CCCCCC)CCN(CCO)C1CCC1 [Compound 77] | 90.06% | A (≥2) | 6.352 | 0.038 | 69.81 nm |  |  |  |  |  |
| CCCCCCCCC(CCCCCC)COC(=O)CCCCN(CCCCC(=O)OCC(CCCCCC)CCCCCCCC)CCN(CCO)C1CCC1 (stereo not drawn) [Compound 36] | 98.3% | A (≥2) | 5.907 | 0.065 | 70.36 nm |  |  |  |  |  |
| CCCCCCCCC(CCCCCC)COC(=O)CCCCCN(CCCCCC(=O)OCC(CCCCCC)CCCCCCCC)CCN(CCCCO)C1CCC1 (stereo not drawn) [Compound 29] | 97.2% | A (≥2) | 6.477 | 0.078 | 85.17 nm |  |  |  |  |  |
| CCCCCCCCC(CCCCCC)COC(=O)CCCCCN(CCCCCC(=O)OCC(CCCCCC)CCCCCCCC)CCN(CC(C)O)C1CCC1 (stereo not drawn) [Compound 32] | 94.3% | C (≥0.1 and <1) | 5.941 | 0.039 | 77.76 nm |  |  |  |  |  |
| CCCCCCCCCCCOC(=O)CCCCCN(CCCCCC(=O)NCC(CCCCCCCC)CCCCCCCC)CCN(CCO)C1CCC1 [Compound 146] | 94.6% | B (≥1 and <2) | 7.496 | 0.052 | 66.27 nm |  |  |  |  |  |
| CCCCCCCCC(CCCCCC)COC(=O)CCCCCC(CCCCCC(=O)OCC(CCCCCC)CCCCCCCC)CN(CCO)C1CCC1 (stereo not drawn) [Compound 15] | 89.8% | D (<0.1) | 9.21 | 0.313 | 51.17 nm |  |  |  |  |  |
| CCCCCCCCC(CCCCCC)COC(=O)CCCCCN(CCCCCC(=O)OCC(CCCCCC)CCCCCCCC)CCN(CCO)C1CCOC1 (stereo not drawn) [Compound 90] | 97.3% | B (≥1 and <2) | 6.6 | 0.067 | 72 nm |  |  |  |  |  |
| CCCCCCCCCCCOC(=O)CCCCCN(CCCCCC(=O)NCC(CCCCCCCC)CCCCCCCC)CCN(CCO)C1CC1 [Compound 151] | 94.0% | C (≥0.1 and <1) | 6.948 | 0.061 | 73.86 nm |  |  |  |  |  |
| CCCCC/C=C\CCCC(CCC/C=C\CCCCC)COC(=O)CCCCCN(CCCCCC(=O)OCC(CCC/C=C\CCCCC)CCC/C=C\CCCCC)CCN(CCO)C1CCC1 [Compound 66] | 80.0% | B (≥1 and <2) | 6.036 | 0.064 | 63.86 nm |  |  |  |  |  |
| CCCCCCCCC(CCCCCCCC)COC(=O)CCCCCN(CCCCCC(=O)OCC(CCCCCCCC)CCCCCCCC)CCN(CCO)C1CCCOC1 (stereo not drawn) [Compound 65] | 93.0% | A (≥2) | 6.544 | 0.066 | 63.83 nm |  |  |  |  |  |
| CCCCCCCCCCCOC(=O)CCCCCN(CCCCCC(=O)OCC(CCCCCCCC)CCCCCCCC)CCN(CCO)C1CCCC1 [Compound 82] | 94.7% | A (≥2) | 6.406 | 0.025 | 87.68 nm |  |  |  |  |  |
| CCCCCCCCCCCOC(=O)CCCCCN(CCCCCC(=O)OCC(CCCCCCCC)CCCCCCCC)CCN(CCO)C1CCCCCC1 [Compound 84] | 93.2% | B (≥1 and <2) | 6.064 | 0.083 | 65.55 nm |  |  |  |  |  |
| CCCCCCCCC(CCCCCCCC)COC(=O)CCCCCN(CCCCCC(=O)OCC(CCCCCCCC)CCCCCCCC)CCN(CCC)C1CCCC1O (stereo not drawn) [Compound 68] | 80.1% | C (≥0.1 and <1) | 6.279 | 0.052 | 56.96 nm |  |  |  |  |  |
| CCCCCCCCCC(CCCCCCCCC)COC(=O)CCCCCN(CCCCCC(=O)OCC(CCCCCCCCC)CCCCCCCCC)CCN(CCO)C1CCC1 [Compound 51] | 94.10% | A (≥2) | 6.093 | 0.073 | 59.73 nm |  |  |  |  |  |
| CCCCCCCCC(CCCCCCCC)CC(=O)NCCCCCN(CCCCCNC(=O)CC(CCCCCCCC)CCCCCCCC)CCN(CCO)C1CCCCCC1 [Compound 144] | 95.0% | A (≥2) | 6.794 | 0.035 | 64.08 nm |  |  |  |  |  |
| CCCCCCCCC(CCCCCC)COC(=O)CCCCCC(CCCCCC(=O)OCC(CCCCCC)CCCCCCCC)CN(CC)CCO (stereo not drawn) [Compound 16] | 98.87% | D (<0.1) | 4.403 | 0.225 | 54.69 nm |  |  |  |  |  |
| CCCCCCCCC(CCCCCC)CC(=O)NCCCCCN(CCCCCOC(=O)CC(CCCCCC)CCCCCCCC)CCN(CCO)C1CCC1 (stereo not drawn) [Compound 108] | 95.6% | A (≥2) | 6.711 | 0.064 | 80.78 nm |  |  |  |  |  |
| CCCCCCCCC(CCCCCCCC)COC(=O)CCOCCN(CCOCCC(=O)OCC(CCCCCCCC)CCCCCCCC)CCN(CCO)C1CCC1 [Compound 102] | 94.10% | B (≥1 and <2) | 6.406 | 0.004 | 70.49 nm |  |  |  |  |  |
